Test results published in US7659400B2, “Radiolabelled benzamide analogues, their synthesis and use in diagnostic imaging” (Washington University, priority 2003, dated 2010).
Several values for one entry are separate records, joined by “and”; a condition that tells them apart may be missing. Equal values may be shown once.

Test system: EMT-6 tumors
Assay: Biodistribution of 18F-labeled ligands in mice bearing EMT-6 tumors
Assay type: in vivo, female Balb/c mice
Details: for clearance from the blood (in words): mouse, in vivo
Protocol: This example illustrates in vivo evaluation of compounds of the present teachings. All animal experiments were conducted in compliance with the Guidelines for the Care and Use of Research Animals established by Washington University's Animal Studies Committee. EMT-6 mouse mammary adenocarcinoma cells (5×10^5 cells in 100 uL of phosphate-buffered saline) were implanted subcutaneously in the scapular region of female Balb/c mice (˜2-month old and 17-22 g; Charles River Laboratories). […] Groups of at least 4 mice were used for each time point. […] After counting, the percentage of the injected dose per gram of tissue (%ID/g) was calculated. The tumor/organ ratios were calculated by dividing the %ID/g of the tumor by the %ID/g of each organ.

[1] = 60 min (1 h) after i.v. injection
[2] = 120 min (2 h) after i.v. injection

In the case of `COc1cc2c(cc1OC)CN(CCCCNC(=O)c1cc(Br)ccc1OCC[18F])CC2` [[^18F]3d], the “Biodistribution: blood” value (5 min after i.v. injection) is reported as 3.57 ± 0.43 %ID/g, the “Biodistribution: bone” value (5 min after i.v. injection) is reported as 2.90 ± 0.39 %ID/g and the “Biodistribution: brain” value (5 min after i.v. injection) is reported as 1.09 ± 0.11 %ID/g. For the same compound, the “Biodistribution: fat” value (5 min after i.v. injection) was 2.85 ± 0.47 %ID/g, the “Biodistribution: heart” value (5 min after i.v. injection) was 3.74 ± 0.37 %ID/g and the “Biodistribution: kidney” value (5 min after i.v. injection) was 42.94 ± 3.34 %ID/g. The “Biodistribution: liver” value (5 min after i.v. injection) was 32.60 ± 3.96 %ID/g, the “Biodistribution: lung” value (5 min after i.v. injection) was 12.08 ± 1.98 %ID/g and the “Biodistribution: muscle” value (5 min after i.v. injection) was 1.95 ± 0.19 %ID/g. For the same compound, the “Biodistribution: tumor (tumor uptake)” value (5 min after i.v. injection) was 3.28 ± 0.41 %ID/g, the “Biodistribution: blood” value (30 min after i.v. injection) was 2.81 ± 0.32 %ID/g and the “Biodistribution: bone” value (30 min after i.v. injection) was 1.17 ± 0.06 %ID/g. The “Biodistribution: brain” value (30 min after i.v. injection) was 0.40 ± 0.03 %ID/g, the “Biodistribution: fat” value (30 min after i.v. injection) was 0.96 ± 0.13 %ID/g and the “Biodistribution: heart” value (30 min after i.v. injection) was 1.55 ± 0.11 %ID/g. For the same compound, the “Biodistribution: kidney” value (30 min after i.v. injection) was 17.55 ± 2.75 %ID/g, the “Biodistribution: liver” value (30 min after i.v. injection) was 13.12 ± 1.39 %ID/g and the “Biodistribution: lung” value (30 min after i.v. injection) was 3.08 ± 0.23 %ID/g. The “Biodistribution: muscle” value (30 min after i.v. injection) was 0.98 ± 0.18 %ID/g, the “Biodistribution: tumor (tumor uptake)” value (30 min after i.v. injection) was 2.59 ± 0.19 %ID/g and the “Biodistribution: tumor (tumor uptake)” value [1] was 2.09 ± 0.28 %ID/g. The “Biodistribution: blood” value (60 min after i.v. injection) was 1.69 ± 0.63 %ID/g, the “Biodistribution: bone” value (60 min after i.v. injection) was 1.12 ± 0.16 %ID/g and the “Biodistribution: brain” value (60 min after i.v. injection) was 0.32 ± 0.05 %ID/g. For the same compound, the “Biodistribution: fat” value (60 min after i.v. injection) was 0.38 ± 0.05 %ID/g, the “Biodistribution: heart” value (60 min after i.v. injection) was 1.04 ± 0.21 %ID/g and the “Biodistribution: kidney” value (60 min after i.v. injection) was 6.92 ± 1.61 %ID/g. The “Biodistribution: liver” value (60 min after i.v. injection) was 5.69 ± 0.54 %ID/g, the “Biodistribution: lung” value (60 min after i.v. injection) was 1.60 ± 0.27 %ID/g and the “Biodistribution: muscle” value (60 min after i.v. injection) was 0.58 ± 0.11 %ID/g. The “Biodistribution: tumor (tumor uptake)” value [2] was 0.96 %ID/g and 0.96 ± 0.24 %ID/g, the “Biodistribution: blood” value (120 min after i.v. injection) was 0.52 ± 0.10 %ID/g and the “Biodistribution: bone” value (120 min after i.v. injection) was 1.28 ± 0.28 %ID/g. The “Biodistribution: brain” value (120 min after i.v. injection) was 0.20 ± 0.03 %ID/g, the “Biodistribution: fat” value (120 min after i.v. injection) was 0.15 ± 0.06 %ID/g and the “Biodistribution: heart” value (120 min after i.v. injection) was 0.40 ± 0.07 %ID/g. For the same compound, the “Biodistribution: kidney” value (120 min after i.v. injection) was 1.12 ± 0.16 %ID/g, the “Biodistribution: liver” value (120 min after i.v. injection) was 2.30 ± 0.33 %ID/g and the “Biodistribution: lung” value (120 min after i.v. injection) was 0.51 ± 0.08 %ID/g. For the same compound, the “Biodistribution: muscle” value (120 min after i.v. injection) was 0.28 ± 0.10 %ID/g, the “tumor:fat ratio” value (2 h after i.v. injection) was ~6 and the “clearance from the blood (in words)” value was “cleared much more slowly from the blood than [^18F]3c”.

`COc1cc2c(cc1OC)CN(CCCCNC(=O)c1cc(I)ccc1OCC[18F])CC2` [[^18F]3e] was tested, and the “Biodistribution: blood” value (5 min after i.v. injection) was 4.60 ± 0.44 %ID/g, the “Biodistribution: bone” value (5 min after i.v. injection) was 2.59 ± 0.28 %ID/g and the “Biodistribution: brain” value (5 min after i.v. injection) was 0.55 ± 0.04 %ID/g. The “Biodistribution: fat” value (5 min after i.v. injection) was 2.32 ± 0.46 %ID/g, the “Biodistribution: heart” value (5 min after i.v. injection) was 3.22 ± 0.27 %ID/g and the “Biodistribution: kidney” value (5 min after i.v. injection) was 36.07 ± 2.28 %ID/g. The “Biodistribution: liver” value (5 min after i.v. injection) was 37.26 ± 4.88 %ID/g, the “Biodistribution: lung” value (5 min after i.v. injection) was 9.71 ± 0.83 %ID/g and the “Biodistribution: muscle” value (5 min after i.v. injection) was 1.52 ± 0.10 %ID/g. The “Biodistribution: tumor (tumor uptake)” value (5 min after i.v. injection) was 2.54 ± 0.62 %ID/g, the “Biodistribution: blood” value (30 min after i.v. injection) was 4.30 ± 0.59 %ID/g and the “Biodistribution: bone” value (30 min after i.v. injection) was 1.31 ± 0.14 %ID/g. For the same compound, the “Biodistribution: brain” value (30 min after i.v. injection) was 0.44 ± 0.04 %ID/g, the “Biodistribution: fat” value (30 min after i.v. injection) was 1.04 ± 0.06 %ID/g and the “Biodistribution: heart” value (30 min after i.v. injection) was 2.37 ± 0.29 %ID/g. The “Biodistribution: kidney” value (30 min after i.v. injection) was 17.43 ± 1.95 %ID/g, the “Biodistribution: liver” value (30 min after i.v. injection) was 17.35 ± 2.72 %ID/g and the “Biodistribution: lung” value (30 min after i.v. injection) was 4.07 ± 0.46 %ID/g. For the same compound, the “Biodistribution: muscle” value (30 min after i.v. injection) was 1.12 ± 0.05 %ID/g, the “Biodistribution: tumor (tumor uptake)” value (30 min after i.v. injection) was 2.81 ± 0.62 %ID/g and the “Biodistribution: tumor (tumor uptake)” value [1] was 2.72 ± 0.13 %ID/g. For the same compound, the “Biodistribution: blood” value (60 min after i.v. injection) was 3.39 ± 0.29 %ID/g, the “Biodistribution: bone” value (60 min after i.v. injection) was 0.99 ± 0.07 %ID/g and the “Biodistribution: brain” value (60 min after i.v. injection) was 0.36 ± 0.02 %ID/g. For the same compound, the “Biodistribution: fat” value (60 min after i.v. injection) was 0.62 ± 0.10 %ID/g, the “Biodistribution: heart” value (60 min after i.v. injection) was 1.61 ± 0.11 %ID/g and the “Biodistribution: kidney” value (60 min after i.v. injection) was 9.36 ± 0.90 %ID/g. The “Biodistribution: liver” value (60 min after i.v. injection) was 7.31 ± 0.98 %ID/g, the “Biodistribution: lung” value (60 min after i.v. injection) was 2.34 ± 0.12 %ID/g and the “Biodistribution: muscle” value (60 min after i.v. injection) was 0.83 ± 0.04 %ID/g. The “Biodistribution: tumor (tumor uptake)” value [2] was 1.92 %ID/g and 1.92 ± 0.10 %ID/g, the “Biodistribution: blood” value (120 min after i.v. injection) was 1.92 ± 0.59 %ID/g and the “Biodistribution: bone” value (120 min after i.v. injection) was 1.67 ± 0.27 %ID/g. For the same compound, the “Biodistribution: brain” value (120 min after i.v. injection) was 0.37 ± 0.06 %ID/g, the “Biodistribution: fat” value (120 min after i.v. injection) was 0.44 ± 0.08 %ID/g and the “Biodistribution: heart” value (120 min after i.v. injection) was 1.00 ± 0.23 %ID/g. For the same compound, the “Biodistribution: kidney” value (120 min after i.v. injection) was 3.92 ± 0.98 %ID/g, the “Biodistribution: liver” value (120 min after i.v. injection) was 4.25 ± 1.56 %ID/g and the “Biodistribution: lung” value (120 min after i.v. injection) was 1.36 ± 0.24 %ID/g. The “Biodistribution: muscle” value (120 min after i.v. injection) was 0.60 ± 0.11 %ID/g and the “clearance from the blood (in words)” value was “cleared much more slowly from the blood than [^18F]3c”.
